Reference: patent US7790761B2, “Blockade of voltage dependent sodium channels” (University College London, priority 2000, dated 2010)
pIC50: −log10 of the molar value.

Tested on: sodium channels
Test: [14C]-labelled guanidine flux through sodium channels
Assay type: biochemical, rat
Conditions: inhibition of flux of [14C]-labelled guanidine through sodium channels

SMILES | pIC50
CN(C)CCNC(=O)c1nn(Cc2ccccc2)c2ccccc12 [Example 47, 1-Benzyl-3-[N-(2-N,N-dimethylaminoethyl)carboxamido]indazole] | 4.20
CC(C)(C)c1cc(C(=O)Nc2cccc(-c3cnco3)c2)n(Cc2ccccc2)n1 [Example 28, 2-Benzyl-5-tert-butyl-2H-pyrazole-3-carboxylic acid (3-oxazol-5-yl-phenyl)-amide] | > 5.05
CC(C)(C)c1cc(C(=O)NCc2ccccc2)n(Cc2ccccc2)n1 [Example 10, 2-Benzyl-5-tert-butyl-2H-pyrazole-3-carboxylic acid benzylamide] | 5.15
CN(C)c1ccc(NC(=O)c2cc(C(C)(C)C)nn2Cc2ccccc2)cc1 [Example 27, 2-Benzyl-5-tert-butyl-2H-pyrazole-3-carboxylic acid (4-dimethylamino-phenyl)-amide] | > 5.05
CC(C)(C)c1ccc(NC(=O)c2cc(C(C)(C)C)nn2Cc2ccccc2)cc1 [Example 25, 2-Benzyl-5-tert-butyl-2H-pyrazole-3-carboxylic acid (4-tert-butyl-phenyl)-amide] | 4.74
CC(C)(C)c1cc(C(=O)NCc2ccccc2)n(Cc2ccc(Cl)cc2Cl)n1 [Example 18, 5-tert-Butyl-2-(2,4-dichloro-benzyl)-2H-pyrazole-3-carboxylic acid benzylamide] | 5.05
CCn1nc(C)cc1-c1nnc(SCc2ccccc2)n1-c1ccccc1 [3-(Benzylthio)-5-(1-ethyl-3-methyl-1H-pyrazol-5-yl)-4-phenyl-4H-1,2,4-triazolehemihydrate] | 4.70
CC(=O)Nc1ccc(NC(=O)c2cc(C)n(Cc3ccc(C)cc3)n2)cc1 [Example 38, 5-Methyl-1-(4-methyl-benzyl)-1H-pyrazole-3-carboxylic acid (4-acetylamino-phenyl)-amide] | 4.85
CC(=O)Nc1ccc(NC(=O)c2cc(C(C)(C)C)nn2Cc2ccc(Cl)cc2Cl)cc1 [Example 39, 5-tert-Butyl-2-(2,4-dichloro-benzyl)-2H-pyrazole-3-carboxylic acid (4-acetylamino-phenyl)-amide] | 4.62
CCn1nc(-c2cccs2)cc1C(=O)NCCc1ccccc1 [Example 16, (S)-2-Ethyl-5-thiophen-2-yl-2H-pyrazole-3-carboxylic acid phenethyl-amide] | 4.89
CCn1nc(-c2cccs2)cc1C(=O)Nc1nc(-c2cccnc2)cs1 [Example 42, 2-Ethyl-5-thiophen-2-yl-2H-pyrazole-3-carboxylic acid (4-(pyridin-3-yl)thiazol-2-yl)-amide] | > 5.05
COc1ccc(NC(=O)c2cc(C(C)(C)C)nn2Cc2ccc(Cl)cc2Cl)cc1 [Example 12, 5-tert-Butyl-2-(2,4-dichloro-benzyl)-2H-pyrazole-3-carboxylic acid (4-methoxy-phenyl)-amide] | > 5.05
CC(C)(C)c1cc(C(=O)NNC(=O)Nc2cccc(C(F)(F)F)c2)n(Cc2ccccc2)n1 [2-Benzyl-5-tert-butyl-2H-pyrazole-3-carboxylic arid N′-(3-trifluoromethylphenylcarbamoyl)hydrazide] | 6.30
Cc1cccc(Cn2nc(C(C)(C)C)cc2-c2nnc(S)n2C2CCCCC2)c1 [5-[3-(tert-Butyl)-1-(3-methylbenzyl)pyrazol-5-yl]-4-cyclohexyl-1,2,4-triazole-3-thiol] | > 5.05
CC(C)(C)c1cc(NC(=O)c2cc(-c3ccccc3)n(-c3ccc(Cl)cc3)n2)no1 [Example 30, 1-(4-Chloro-phenyl)-5-phenyl-1H-pyrazole-3-carboxylic acid (5-tert-butyl-isoxazol-3-yl)-amide] | 4.82
Cn1nc(C(C)(C)C)cc1C(=O)Nc1nc(-c2cccnc2)cs1 [Example 44, 5-tert-Butyl-2-methyl-2H-pyrazole-3-carboxylic acid (4-(pyridin-3-yl)thiazol-2-yl)-amide] | > 5.05
Cn1nc(C(C)(C)C)cc1C(=O)Nc1cccc(C(=O)Nc2ccccc2)c1 [Example 33, 5-tert-Butyl-2-methyl-2H-pyrazole-3-carboxylic acid (3-phenylcarbamoyl-phenyl)-amide] | 4.66
